{"source": "patent US9341619B2", "about": "“Hyposialylation disorders” (THE UNITED STATES OF AMERICA, as representated by the …, priority 2013, dated 2016)", "system": "sialylation of core 1 O-linked glycans of plasma glycoproteins (T/ST ratio)", "assay": "Plasma T/ST ratio (T-antigen to monosialylated ST-antigen) by LC-MS/MS in treated GNE myopathy patients", "type": "in vivo, human", "procedure": "The quantification of the T/ST ratio was carried out using the O-glycan quantification methods disclosed in Liu et al. Mol Genet Metab 106, 442-454 (2012). Briefly, O-linked glycans from human serum or plasma total glycoproteins were released by sodium hydroxide with sodium borohydrate and desalted by ion-exchange column and then permethylated before the quantity of T-antigen and monosialyl ST-antigen was measured using LC-MS/MS method. Plasma samples from 40 normal controls were used to establish the normal range for the T/ST ratio at <0.056. A cut-off of 0.06 was used to diagnose hyposialylation of O-linked protein glycosylation in human plasma or serum.\nO-glycans were released from plasma glycoproteins and prepared for analysis essentially as described by Carlson (J Biol Chem 243: 616-626, 1968; Liu et al. Mol Genet Metab 106, 442-454 (2012)), with modifications as described. An internal standard (1250 pmol raffinose in 5 μL) was added to 10 μL of plasma and 65 μl water for a final volume of 100 μL. Next, 100 μL of freshly prepared 2M […] in 0.1M sodium hydroxide was added to denature the serum proteins and release the O-glycans; the mixture was incubated at 45° C. for 16 hours to ensure complete reaction. The reaction was neutralized by drop wise addition of 1.6 mL of a 0.25M acetic acid-methanol solution, and the O-glycans were extracted in methanol. […]"}
{"smiles": "CC(=O)N[C@@H]1C(O)C[C@](O)(C(=O)O)OC1[C@H](O)[C@H](O)CO", "note": "(stereo in doubt) [sialic acid, N-acetylneuraminic acid]", "values": [{"measurement": "T/ST ratio after sialic acid treatment", "setting": "one GNE myopathy patient (NH00016), sialic acid received one month before the test, cut-off 0.06", "value": 0.05}]}
{"smiles": "CC(=O)N[C@H]1[C@@H](O)[C@H](O)[C@@H](CO)O[C@H]1O", "note": "[ManNAc, N-acetyl-D-mannosamine]", "values": [{"measurement": "T/ST ratio range under ManNAc", "setting": "one GNE myopathy patient (SIA79) self-administering off-label ManNAc, abnormal range 0.06 or higher", "value": "normal range"}]}
